From US12433962B2, “Probes for imaging b-amyloid and inhibition of β-amyloid aggregation” (The Hong Kong University of Science and Technology, priority 2021, dated 2025)

Columns and labels:
[1] = molecular target: Aβ42 fibril (Homo sapiens, UniProt P05067); assay: Fluorescent response upon binding to Aβ42 fibrils in phosphate buffer; conditions: titrated with Aβ42 fibril in phosphate buffer; dye 1 μM
Procedure: FIG. 4 depicts determination of the binding constant of DNTPH for Aβ42 aggregates. (A) Plot of the PL intensity as a function of the concentration of DNTPH in the presence of Aβ42 aggregates (3 μM) in PBS solution (pH=7.4); (B)Response time of DNTPH binding to Aβ42 aggregates. […] (D) Ultrahigh S/N ratio of DNTPH toward Aβ42 aggregates compared to the background signals in PBS and that towards BSA.
It was investigated whether DNTPH has a fluorescent response upon binding to Aβ aggregates. When DNTPH was titrated with the Aβ42 fibril in phosphate buffer, a strong and progressive increase (up to about 18-fold) in red fluorescence intensity concomitant was observed, which took ˜30 min to reach a plateau. Without wishing to be bound by theory, it is believed that DNTPH is capable of binding hydrophobic surfaces in aggregated amyloid fibrils with the help of the binding unit, resulting in the decrease of conformational freedom and rotational restriction. […] That is because these three probes show high background signals, which results in low S/N ratio even with a decent fluorescent response to testing objects.

[2] = system: PC12 cell; assay: MTT cytotoxicity assay in PC12 cells; format: cell-based
Procedure: FIG. 7 depicts (A) Cytotoxicity towards […] PC-12 cells of Aβ monomer under 24 h and 48 h incubation. (B) Cytotoxicity of Aβ fibrils under 24 h and 48 h incubation. […] (D) Cell viability of different concentrations of DNTPH towards PC-12 cells under 24 h and 48 h incubation.

[3] = Emission and AIE properties in solvent mixtures; format: physicochemical
Description: FIG. 2 depicts (A) Normalized absorption spectra of DCTB, DCPH and DNTPH in DMSO solution; (B) Normalized fluorescence (PL) spectra of DCTB, DCPH and DNTPH in aggregates; (C) Plot of the changes in fluorescence intensity with different water fraction (fw, in volume percentage, vol %), where I0 and I are the maximal fluorescence intensity recorded before and after adding water into the THF solution of DCTB. (D) Plot of the changes in fluorescence intensity with different toluene fractions (ft, in volume percentage, vol %), where I0 and I are the maximal fluorescence intensity recorded before and after adding toluene into the DMSO solution of DCPH and DNTPH respectively. [AIE dyes]=10 μM.
DCTB and DCPH were synthesized and their structure-activity relationship was investigated (FIG. 1).
However, to achieve a more obvious emission enhancement with low background signals, the TICT and AIE properties can be further modified. […] DNTPH was non-emissive in aqueous solution, and its NIR fluorescence at 683 nm was continuously intensified until the volume fraction of toluene (ft) […] was increased to about 40-fold (FIG. 2D). In addition, initial weedy fluorescence intensity of DNTPH in aqueous solution and the outstanding emission enhancement behavior in the aggregated state made it an ideal candidate for detecting protein fibrillogenesis, like Aβ aggregates.

[4] = Solubility in solvents and water; format: physicochemical

Sequence of Aβ42 fibril (P05067 672-713 limits assumed): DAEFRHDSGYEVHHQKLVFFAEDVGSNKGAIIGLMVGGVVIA

## Cc1ccc2c(c1)sc(-c1ccc(N(C)C)cc1)[n+]2C.[Cl-] [ThT, thioflavin T]
[1]
  increase in fluorescence intensity (fluorescent response) to Aβ42 fibril: 5 fold

## Aβ monomer: monomeric amyloid-β peptide
[2]; 20 μM, 48 h incubation
  cell death: 50%
[2]; 5-20 μM, less than 24 h of exposure
  cytotoxicity: No significant cytotoxicity

## CCN(CC)c1ccc2cc(C=C(C#N)c3nc4ccccc4s3)c(=O)oc2c1 [DCTB]
[3]
  emission maximum: 601 nm
[3]; THF/water, water fraction (fw) 70%
  AIE effect, fluorescence intensity increase: less than 2 fold
[4]
  solubility: soluble in THF but aggregated in water

## CCN(CC)c1ccc2cc(C=Cc3cc[n+](CCO)cc3)c(=O)oc2c1.[Br-] [DCPH]
[3]
  emission maximum: 690 nm
[3]; DMSO/toluene mixtures, 99% toluene fraction (ft)
  PL intensity enhancement in aggregates compared with DMSO solution: about 2 fold
[4]
  solubility: more soluble in water and polar solvent
